Test results reported in US20150306056A1, “USE OF A DHA ESTER FOR PROPHYLACTIC AND/OR CURATIVE TREATMENT OF DREPANOCYTOSIS” (PIERRE FABRE MEDICAMENT, priority 2012, published 2015).

Assays:
Assay type in all cases: in vivo
[1] = DHA plasma level in dogs given nicotinol DHA via oral route
Description: (§1) Effect of nicotinol DHA on the fatty acid composition of plasma and red blood cells in dogs treated via oral route. The objective of this first study was to assay total DHA in the blood (plasma and red blood cells) of dogs given nicotinol DHA via oral route.
(§2) Two groups of 10 dogs were used:
(§3) Group 2: nicotinol DHA at 2 g per day.
(§4) All the animals were given either a placebo or nicotinol DHA at 2 g per day via oral route for 28 days. Blood samples were taken at D1 (control), D7, D14, D21 and D28.
(§5) The total lipids of the plasma (500 μL) and of the red blood cells (≈500 mg, the weighing of red blood cells is more accurate than measuring volume) were extracted with 4 mL of hexane/isopropanol mixture ([…]) in an acid medium (3M HCl, 500 μL) in the presence of margaric acid as internal standard (100 μg). After agitation and centrifugation (2000 g, 15 minutes, 10° C.) the organic phase was separated. A second extraction with 2 mL of the same solvent was performed under the same conditions. The organic phases were washed with 2 mL of saline water ([…]). The solvents were evaporated under a stream of nitrogen at 40° C.
(§6) The total lipids derived from the plasma and red blood cells were then saponified (1 mL of 0.5M NaOH in methanol, 70° C., 30 minutes) then converted to methyl eaters (1 mL, 14% BF3 in methanol, 70° C., 15 minutes). After hydrolysio (4 mL […]) they were extracted with 4 then 2 mL of pentane. The organic phases were washed with 2 mL of saline water (9% NaCl). The solvents were evaporated under a stream of nitrogen at 40° C. The methyl esters were re-dissolved in 200 μL hexane for the plasma and red blood cells. The extracted fatty acid methyl esters were analysed by gas phase chromatography. The chromatograph (Agilent Technologies 6890N) was equipped with a split injector heated to 260° C. (1:10 division ratio), capillary column (length 60 m, diameter 0.25 mm) with BPX70 stationary phase (70% cyanopropylpolyphenylene-siloxane; thickness 0.25 μm) and flame ionization detector heated to 260° C. (hydrogen: 40 mL/min, air: 450 mL/min). The vector gas was helium (constant flow rate 1.5 mL/min). The temperature of the column was initially 150° C. and brought at a temperature gradient of 1.3° C./min up to 220° C. then 40° C./min to reach 260° C. for 5 minutes. The retention times of standard methyl esters allowed identification of the extracted fatty acid methyl esters.
(§7) The DHA was quantitated relative to the internal standard (C17:0) added in known quantity to the sample before extraction of the total lipids. It is expressed in μg/mL for the plasma, in μg/g for the red blood cells. The values are given as a mean f standard deviation (in general n=10). The significant differences are shown by a Student's test with 5% threshold.

[2] = DHA level of red blood cells in dogs given nicotinol DHA via oral route
Description: as §1, §2, §3, §4, §5, §6, §7

[3] = DHA plasma level in rats given panthenol DHA via oral force-feeding; details: 300 and 1000 mg/kg per day oral, 7 days (FIG. 1)
Description: (§8) Incorporation of DHA in the plasma and red blood cells of rats receiving panthenol […] via oral route. The objective of this study was to assay total DHA in the blood (plasma and red blood cells) of rats given panthenol DHA via oral force-feeding for 7 days.
(§9) Three groups of 4 rats (2 male and 2 female) were used:
(§10) Group 1: control group (olive oil)
(§11) Group 2: panthenol DHA at 300 mg/kg per day.
(§12) Group 3: panthenol DHA at 1000 mg/kg per day.
(§13) The total lipids of the plasma (500 μL) and red blood cells were extracted with a hexane/isopropanol mixture (3:2, v/v) in an acid medium (3M HCl, 1 mL) in the presence of margaric acid as internal standard. The total lipids from the plasma and red blood cell were saponified (i mL 0.5M NaOH in methanol, 70° C., 30 minutes) then converted to methyl esters (1 mL, 14% BF) in methanol, 70° C., 15 minutes). The fatty acid methyl esters were extracted with pentane then analysed by gas phase chromatography. The chromatograph (Agilent Technologies 6890N) was equipped with a split injector heated to 250° C. (division ratio 1:10) and a capillary column (length 60 m, diameter 0.25 mm) with BPX70 stationary phase (70% cyanopropylpolyphenylene-siloxane; thickness 0.25 μm). The vector gas was helium. […]
(§14) The DHA was quantitated in relation to the internal standard (C17:0) added in known quantity to the sample before extraction of the total lipids. […]

[4] = DHA concentration in human red blood cells after oral panthenol DHA (clinical trial); details: irrespective of the dose (1, 2, 4 g/day), 28 days
Description: Concentration of DHA in human red blood cells after absorption of panthenol DHA.
The objective of this clinical trial was to determine total DHA concentrations in the red blood cells of volunteers given a once daily oral dose of panthenol DHA for 28 days. Three doses of panthenol […] were tested in this trial: 1, 2 and 4 g/day. Twelve persons were included in this trial, 3 were given a placebo (without panthenol DHA) and 9 were given panthenol DHA.
Blood samples were taken before administering panthenol DHA (corresponding to the baseline) and thereafter at days 4, 7, 10 14, 15, 19, 22, 25 and 29 to determine the DHA concentrations in the red blood cells. Two blood samples of 4 mL each were taken in tubes containing EDTA. The tubes were centrifuged at 3000 g for 15 minutes at ambient temperature within 30 minutes after the taking of the sample. […]
The lipids were extracted from the red blood cell samples (≈500 mg) using a hexane/isopropanol mixture (3:2 v/v) in an acid medium in the presence of margaric acid as internal standard (100 μg). […] After extraction with pentane, the extracted fatty acid methyl esters were analysed by gas phase chromatography. […]
The DHA was quantitated relative to the internal standard (C17:0) added in known quantity to the sample before extraction of the total lipids. […]

[5] = DHA level of red blood cells in rats given panthenol DHA via oral force-feeding; details: 300 and 1000 mg/kg per day oral, 7 days (FIG. 1)
Description: as §8, §9, §10, §11, §12, §13, §14

[6] = 2 g/D oral, significant at every treatment time vs control group
[7] = group 2, D −1 (start of the experiment, before treatment with 2 g/D oral)

DHA plasma level, mean ([1]; 2 g/D oral, D 7) [µg/mL] | DHA plasma level, mean ([1]; 2 g/D oral, D 14) [µg/mL] | DHA plasma level, mean ([1]; 2 g/D oral, D 21) [µg/mL] | DHA plasma level, mean ([1]; 2 g/D oral, D 28) [µg/mL] | effect of treatment on plasma DHA [1, 6] | DHA plasma level, mean [1, 7] [µg/mL] | DHA level of red blood cells, mean ([2]; 2 g/D oral, D 7) [µg/mL] | DHA level of red blood cells, mean ([2]; 2 g/D oral, D 14) [µg/mL] | DHA level of red blood cells, mean ([2]; 2 g/D oral, D 21) [µg/mL] | DHA level of red blood cells, mean ([2]; 2 g/D oral, D 28) [µg/mL] | effect of treatment on DHA level of red blood cells [2, 6] | DHA level of red blood cells, mean [2, 7] [µg/mL] | amount of DHA found in the plasma ([3]; female rats) | amount of DHA found in the plasma ([3]; male rats) | amount of DHA found in the red blood cells ([5]; female rats) | amount of DHA found in the red blood cells ([5]; male rats) | Structure (SMILES) | DHA level in human red blood cells versus placebo [4]
22.1 | 23.7 | 27.9 | 32.6 | increase in plasma DHA | 3.8 | 4.7 | 7.1 | 8.3 | 8.7 | rise in the DHA level of red blood cells | 1.7 | – | – | – | – | CC/C=C\C/C=C\C/C=C\C/C=C\C/C=C\C/C=C\CCC(=O)OCc1cccnc1 [nicotinol DHA] | –
– | – | – | – | – | – | – | – | – | – | – | – | only increased with the higher dose | dependent on the dose | only increased with the higher dose | dependent on the dose | CC/C=C\C/C=C\C/C=C\C/C=C\C/C=C\C/C=C\CCC(=O)OCCCNC(=O)[C@@H](O)C(C)(C)CO [panthenol DHA, panthenyl docosahexaenoate] | increased compared with the placebo group
